Data reported in ChEMBL document CHEMBL6103537 (J Med Chem, 2025).

Experiments:
[1] = molecular target: T1, Signal transducer and activator of transcription 6 (Homo sapiens, UniProt P42226); test: Binding affinity to N-terminal his6-tgged STAT6 (unknown origin) (113 to 658 residues) assessed as inhibition constant incubated for 1 hr by fluorescence polarization assay
T1 sequence (P42226 whole entry): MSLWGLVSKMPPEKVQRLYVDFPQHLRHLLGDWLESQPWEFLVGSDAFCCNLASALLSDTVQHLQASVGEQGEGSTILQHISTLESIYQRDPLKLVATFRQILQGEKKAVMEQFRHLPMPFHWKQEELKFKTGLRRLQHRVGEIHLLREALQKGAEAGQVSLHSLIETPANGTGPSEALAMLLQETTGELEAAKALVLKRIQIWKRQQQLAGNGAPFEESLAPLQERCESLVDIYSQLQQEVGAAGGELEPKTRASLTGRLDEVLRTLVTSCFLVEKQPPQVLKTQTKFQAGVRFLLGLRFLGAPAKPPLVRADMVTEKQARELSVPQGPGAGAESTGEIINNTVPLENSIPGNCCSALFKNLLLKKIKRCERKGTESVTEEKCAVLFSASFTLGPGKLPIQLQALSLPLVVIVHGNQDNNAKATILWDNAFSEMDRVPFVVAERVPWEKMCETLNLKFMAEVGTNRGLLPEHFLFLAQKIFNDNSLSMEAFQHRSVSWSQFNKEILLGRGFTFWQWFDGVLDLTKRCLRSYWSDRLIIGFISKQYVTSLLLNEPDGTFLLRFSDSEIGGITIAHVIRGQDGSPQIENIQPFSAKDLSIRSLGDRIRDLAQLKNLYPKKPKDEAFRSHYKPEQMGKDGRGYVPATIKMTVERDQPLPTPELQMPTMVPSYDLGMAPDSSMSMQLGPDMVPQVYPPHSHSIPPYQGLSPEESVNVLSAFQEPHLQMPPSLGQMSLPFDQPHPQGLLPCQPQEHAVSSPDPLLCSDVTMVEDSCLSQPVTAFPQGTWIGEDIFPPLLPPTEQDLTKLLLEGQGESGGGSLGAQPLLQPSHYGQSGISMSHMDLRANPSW

[2] = molecular target: T2, Protein cereblon/Signal transducer and activator of transcription 6 (Homo sapiens, UniProt P42226+Q96SW2); test: PROTAC activity at STAT6/CRBN in human MV4-11 cells assessed as reduction in STAT6 level at 5 uM incubated for 12 hrs by Western blot analysis relative to control; assay type: cell-based
Target sequence in this assay (Q96SW2 whole entry partner, one chain of several): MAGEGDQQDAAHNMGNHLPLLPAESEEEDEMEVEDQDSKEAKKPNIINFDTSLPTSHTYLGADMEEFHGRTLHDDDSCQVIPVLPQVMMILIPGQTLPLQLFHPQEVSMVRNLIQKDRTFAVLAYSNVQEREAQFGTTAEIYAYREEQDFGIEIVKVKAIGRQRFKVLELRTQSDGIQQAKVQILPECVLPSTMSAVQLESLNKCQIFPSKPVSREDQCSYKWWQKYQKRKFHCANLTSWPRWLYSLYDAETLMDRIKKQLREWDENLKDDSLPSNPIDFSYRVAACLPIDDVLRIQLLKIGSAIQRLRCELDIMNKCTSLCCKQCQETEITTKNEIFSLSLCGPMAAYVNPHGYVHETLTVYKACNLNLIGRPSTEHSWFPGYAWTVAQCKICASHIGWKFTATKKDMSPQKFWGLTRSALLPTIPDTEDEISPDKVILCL

[3] = molecular target: T2, Protein cereblon/Signal transducer and activator of transcription 6; test: PROTAC activity at STAT6/CRBN in human MV4-11 cells assessed as reduction in STAT6 level incubated for 12 hrs by Western blot analysis; assay type: cell-based
Target sequence in this assay (Q96SW2 whole entry, one chain of several): as the sequence (Q96SW2 whole entry partner, one chain of several) above

[4] = molecular target: T3, Signal transducer and activator of transcription 5B (Homo sapiens, UniProt P51692); test: Binding affinity to STAT5B (unknown origin) assessed as inhibition constant incubated for 1 hr by fluorescence polarization assay
T3 sequence (P51692 whole entry): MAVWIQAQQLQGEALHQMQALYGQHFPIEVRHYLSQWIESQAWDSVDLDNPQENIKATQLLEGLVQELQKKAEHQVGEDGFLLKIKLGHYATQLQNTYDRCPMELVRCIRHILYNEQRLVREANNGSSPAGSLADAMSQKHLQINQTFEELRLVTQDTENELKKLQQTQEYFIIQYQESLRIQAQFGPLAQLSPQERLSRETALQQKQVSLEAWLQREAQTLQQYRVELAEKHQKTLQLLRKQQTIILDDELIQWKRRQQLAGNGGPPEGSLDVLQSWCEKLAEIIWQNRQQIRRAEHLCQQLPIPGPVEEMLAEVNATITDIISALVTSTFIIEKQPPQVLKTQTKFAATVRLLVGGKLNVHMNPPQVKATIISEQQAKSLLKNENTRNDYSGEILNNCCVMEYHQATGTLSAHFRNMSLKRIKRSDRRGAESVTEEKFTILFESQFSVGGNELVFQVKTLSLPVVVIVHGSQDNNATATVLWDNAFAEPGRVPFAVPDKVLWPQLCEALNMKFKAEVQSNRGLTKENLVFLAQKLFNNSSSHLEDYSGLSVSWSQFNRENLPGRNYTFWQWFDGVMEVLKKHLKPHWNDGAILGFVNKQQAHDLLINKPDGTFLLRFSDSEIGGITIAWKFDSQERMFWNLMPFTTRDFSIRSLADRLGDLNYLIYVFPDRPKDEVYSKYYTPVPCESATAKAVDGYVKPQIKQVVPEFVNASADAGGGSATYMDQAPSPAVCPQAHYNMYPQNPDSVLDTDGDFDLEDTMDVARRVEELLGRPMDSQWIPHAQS

Ki [1] [nM] | SMILES | further results
120 | O=C(N[C@H](C(=O)N1CCC[C@H]1C(=O)N1CCO[C@H](c2ccccc2)C1)C1CC1)c1cc2cc(C(F)(F)P(=O)(O)O)ccc2s1 | –
120 | CC(C)(O)[C@H](NC(=O)c1cc2cc(C(F)(F)P(=O)(O)O)ccc2s1)C(=O)N1CCC[C@H]1C(=O)N1CCO[C@H](c2ccccc2)C1 | –
33 | CC(C)(C)[C@H](NC(=O)c1cc2cc(C(F)(F)P(=O)(O)O)ccc2s1)C(=O)N1Cc2ccccc2[C@H]1C(=O)N1CCO[C@H](c2ccccc2)C1 | –
– | CC(C)(C)[C@H](NC(=O)c1cc2cc(C(F)(F)P(=O)(O)O)ccc2s1)C(=O)N1C[C@@H](NC(=O)CCCC#Cc2cccc3c2CN(C2CCC(=O)NC2=O)C3=O)C[C@H]1C(=O)N1CCO[C@H](c2ccccc2)C1 (stereo not given in full) | Emax [2]: > 95%; DC50 [3]: 260 nM
180 | O=C(N[C@@H](CC1CCNCC1)C(=O)N1CCC[C@H]1C(=O)N1CCO[C@H](c2ccccc2)C1)c1cc2cc(C(F)(F)P(=O)(O)O)ccc2s1 | –
250 | CN1CCC(C[C@H](NC(=O)c2cc3cc(C(F)(F)P(=O)(O)O)ccc3s2)C(=O)N2CCC[C@H]2C(=O)N2CCO[C@H](c3ccccc3)C2)CC1 | –
340 | O=C(N[C@@H](Cc1ccccc1)C(=O)N1CCC[C@H]1C(=O)N1CCO[C@H](c2ccccc2)C1)c1cc2cc(C(F)(F)P(=O)(O)O)ccc2s1 | –
– | CC(C)(C)[C@H](NC(=O)c1cc2cc(C(F)(F)P(=O)(O)O)ccc2s1)C(=O)N1C[C@@H](OCCCCCCCC#Cc2cccc3c2CN(C2CCC(=O)NC2=O)C3=O)C[C@H]1C(=O)N1CCO[C@H](c2ccccc2)C1 (stereo not given in full) | Emax [2]: > 95%; DC50 [3]: 60 nM
– | CC(=O)N[C@H]1C[C@@H](C(=O)N2CCO[C@H](c3ccccc3)C2)N(C(=O)[C@@H](NC(=O)c2cc3cc(C(F)(F)P(=O)(O)O)ccc3s2)C(C)(C)C)C1 | Ki [4]: 590 nM
– | CC(C)(C)[C@H](NC(=O)c1cc2cc(C(F)(F)P(=O)(O)O)ccc2s1)C(=O)N1C[C@@H](OCCCCCCC#Cc2cccc3c2CN(C2CCC(=O)NC2=O)C3=O)C[C@H]1C(=O)N1CCO[C@H](c2ccccc2)C1 (stereo not given in full) | Emax [2]: > 95%; DC50 [3]: 20 nM
– | CC(C)(C)[C@H](NC(=O)c1cc2cc(C(F)(F)P(=O)(O)O)ccc2s1)C(=O)N1CCC[C@H]1C(=O)N1Cc2ccccc2C1 | Ki [4]: > 5000 nM
42 | CC(C)(C)[C@H](NC(=O)c1cc2cc(C(F)(F)P(=O)(O)O)ccc2s1)C(=O)N1Cc2ccccc2[C@H]1C(=O)N1CCC[C@H](c2ccccc2)C1 | –
110 | CC(C)(C)[C@H](NC(=O)c1cc2cc(C(F)(F)P(=O)(O)O)ccc2s1)C(=O)N1CCCC[C@H]1C(=O)N1CCO[C@H](c2ccccc2)C1 | –
160 | CC(C)(C)c1ccc(C[C@H](NC(=O)c2cc3cc(C(F)(F)P(=O)(O)O)ccc3s2)C(=O)N2CCC[C@H]2C(=O)N2CCO[C@H](c3ccccc3)C2)cc1 | –
– | CC(C)(C)[C@H](NC(=O)c1cc2cc(C(F)(F)P(=O)(O)O)ccc2s1)C(=O)N1C[C@@H](OCCCCC#Cc2cccc3c2CN(C2CCC(=O)NC2=O)C3=O)C[C@H]1C(=O)N1CCO[C@H](c2ccccc2)C1 (stereo not given in full) | Emax [2]: > 95%; DC50 [3]: 50 nM
190 | CC(C)(C)[C@H](NC(=O)c1cc2cc(C(F)(F)P(=O)(O)O)ccc2s1)C(=O)N1Cc2ccccc2C[C@H]1C(=O)N1CCC[C@H](c2ccccc2)C1 | –
450 | O=C(N[C@@H](Cc1ccncc1)C(=O)N1CCC[C@H]1C(=O)N1CCO[C@H](c2ccccc2)C1)c1cc2cc(C(F)(F)P(=O)(O)O)ccc2s1 | –
200 | CC(C)(C)[C@H](NC(=O)c1cc2cc(C(F)(F)P(=O)(O)O)ccc2s1)C(=O)N1CCCCC[C@H]1C(=O)N1CCC[C@H](c2ccccc2)C1 | –

Ki [1] [nM] | SMILES | further results
6 | CO[C@H]1C[C@@H](C(=O)N2CCO[C@H](c3ccccc3)C2)N(C(=O)[C@@H](NC(=O)c2cc3cc(C(F)(F)P(=O)(O)O)ccc3s2)C(C)(C)C)C1 | –
160 | CC(C)(C)[C@H](NC(=O)c1cc2cc(C(F)(F)P(=O)(O)O)ccc2s1)C(=O)N1CCCC[C@H]1C(=O)N1CCC[C@H](c2ccccc2)C1 | –
– | CC(C)(C)[C@H](NC(=O)c1cc2cc(C(F)(F)P(=O)(O)O)ccc2s1)C(=O)N1C[C@@H](NC(=O)CCCCCCC#Cc2cccc3c2CN(C2CCC(=O)NC2=O)C3=O)C[C@H]1C(=O)N1CCO[C@H](c2ccccc2)C1 (stereo not given in full) | Emax [2]: > 95%; DC50 [3]: 250 nM
– | CC(C)(C)[C@H](NC(=O)c1cc2cc(C(F)(F)P(=O)(O)O)ccc2s1)C(=O)N1C[C@H](OCCCCCC#Cc2cccc3c2CN(C2CCC(=O)NC2=O)C3=O)C[C@H]1C(=O)N1CCO[C@H](c2ccccc2)C1 (stereo not given in full) | Emax [2]: > 95%; DC50 [3]: 130 nM
– | CC(C)(C)[C@H](NC(=O)c1cc2cc(C(F)(F)P(=O)(O)O)ccc2s1)C(=O)N1C[C@@H](NC(=O)CCCCCC#Cc2ccc3c(c2)CN(C2CCC(=O)NC2=O)C3=O)C[C@H]1C(=O)N1CCO[C@H](c2ccccc2)C1 (stereo not given in full) | Emax [2]: > 90%; DC50 [3]: 200 nM
– | CC(C)(C)[C@H](NC(=O)c1cc2cc(C(F)(F)P(=O)(O)O)ccc2s1)C(=O)N1C[C@@H](NC(=O)CCCCC#Cc2cccc3c2CN(C2CCC(=O)NC2=O)C3=O)C[C@H]1C(=O)N1CCO[C@H](c2ccccc2)C1 (stereo not given in full) | Emax [2]: > 95%; DC50 [3]: 120 nM
120 | CC(C)(C)[C@H](NC(=O)c1cc2cc(C(F)(F)P(=O)(O)O)ccc2s1)C(=O)N1CCCCC[C@H]1C(=O)N1CCO[C@H](c2ccccc2)C1 | –
250 | O=C(N[C@@H](Cc1ccc2ccccc2c1)C(=O)N1CCC[C@H]1C(=O)N1CCO[C@H](c2ccccc2)C1)c1cc2cc(C(F)(F)P(=O)(O)O)ccc2s1 | –
170 | O=C(N[C@@H](Cc1ccc(Br)cc1)C(=O)N1CCC[C@H]1C(=O)N1CCO[C@H](c2ccccc2)C1)c1cc2cc(C(F)(F)P(=O)(O)O)ccc2s1 | –
– | CC(C)(C)[C@H](NC(=O)c1cc2cc(C(F)(F)P(=O)(O)O)ccc2s1)C(=O)N1C[C@@H](OCCCCCCNc2cccc3c2CN(C2CCC(=O)NC2=O)C3=O)C[C@H]1C(=O)N1CCO[C@H](c2ccccc2)C1 (stereo not given in full) | Emax [2]: > 95%; DC50 [3]: 60 nM
160 | CC[C@H](NC(=O)c1cc2cc(C(F)(F)P(=O)(O)O)ccc2s1)C(=O)N1CCC[C@H]1C(=O)N1CCO[C@H](c2ccccc2)C1 | –
210 | COc1ccc(C[C@H](NC(=O)c2cc3cc(C(F)(F)P(=O)(O)O)ccc3s2)C(=O)N2CCC[C@H]2C(=O)N2CCO[C@H](c3ccccc3)C2)cc1 | –
90 | O=C(N[C@H](C(=O)N1CCC[C@H]1C(=O)N1CCO[C@H](c2ccccc2)C1)C1CCCCC1)c1cc2cc(C(F)(F)P(=O)(O)O)ccc2s1 | –
83 | CC(C)(C)[C@H](NC(=O)c1cc2cc(C(F)(F)P(=O)(O)O)ccc2s1)C(=O)N1Cc2ccccc2C[C@H]1C(=O)N1CCO[C@H](c2ccccc2)C1 | –
260 | O=C(N[C@H](C(=O)N1CCC[C@H]1C(=O)N1CCO[C@H](c2ccccc2)C1)C1CCNCC1)c1cc2cc(C(F)(F)P(=O)(O)O)ccc2s1 | –
– | CC(C)(C)[C@H](NC(=O)c1cc2cc(C(F)(F)P(=O)(O)O)ccc2s1)C(=O)N1C[C@@H](NC(=O)CCCCCC#Cc2cccc3c2CN(C2CCC(=O)NC2=O)C3=O)C[C@H]1C(=O)N1CCO[C@H](c2ccccc2)C1 (stereo not given in full) | Emax [2]: > 95%; DC50 [3]: 60 nM
3500 | C/C(=C\C(=O)N[C@H](C(=O)N1CCC[C@H]1C(=O)N1CCc2ccccc2C1)C(C)(C)C)c1ccc(C(F)(F)P(=O)(O)O)cc1 | –
